# In US20210196678A1, “SELECTIVE ANDROGEN RECEPTOR DEGRADER (SARD) LIGANDS AND METHODS OF USE THEREOF” (University of Tennessee Research Foundation, priority 2018, published 2021):
# Several values for one entry are separate records, joined by “and”; a condition that tells them apart may be missing. Equal values may be shown once. Entries after “also recorded” stand apart in the source; their conditions may differ.
# Assays:
# [1] = SARD compound serum concentrations in Hershberger rats (LC-MS/MS); conditions: for Conc of 1065: serum of individual rats, 24-30 hours after the last dose, standards in nM
# [2] = HLM metabolism (half-life); assay type: in vitro ADME, human; conditions: for HLM Metabolism (H.L. min): human liver microsomes half-life
# Procedure: (§1) Table 4 reports the in vitro efficacy (transactivation/degradation) and metabolism (rat liver microsomes (RLM) and human LM (HLM) half-lives) data, in vivo efficacy (S.V. and prostate % diff in rats) and serum concentration in rats for all the compounds in the 20 mg/kg Hershberger experiment. […].
# [3] = RLM metabolism (half-life); assay type: in vitro ADME; conditions: rat liver microsomes half-life
# Procedure: as §1
# [4] = system: Intact Sprague Dawley rats; experiment: Hershberger assay, seminal vesicles and prostate weights; assay type: in vivo, rat
# Procedure: Dosing solutions were prepared in 20% DMSO+80% PEG. Fourteen days after the initiation of treatment, animals were sacrificed and tissue weights were recorded. Body weights were measured on day 1 and at the time of sacrifice. Tissue weights were normalized to body weight and represented as percent change from vehicle-treated animals.
# hAR-LBD (633-919) = target: T1, hAR-LBD (633-919) (Homo sapiens, UniProt P10275); experiment: Ligand binding assay, GST-AR-LBD with [3H]mibolerone
# T1 construct: GST (N); made in house
# T1 sequence (P10275 634-920): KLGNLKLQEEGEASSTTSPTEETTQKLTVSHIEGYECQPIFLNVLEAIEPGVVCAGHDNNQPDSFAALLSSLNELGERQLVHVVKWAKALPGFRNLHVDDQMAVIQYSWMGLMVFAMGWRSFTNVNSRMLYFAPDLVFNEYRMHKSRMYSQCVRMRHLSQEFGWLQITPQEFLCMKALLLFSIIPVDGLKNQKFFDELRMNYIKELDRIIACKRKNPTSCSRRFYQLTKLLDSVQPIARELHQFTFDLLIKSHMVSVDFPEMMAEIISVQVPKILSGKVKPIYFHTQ
# Procedure: Objective: To determine SARDs binding affinity to the AR-LBD.
# Non-specific binding was then subtracted from total binding to determine specific binding and non-linear regression for ligand binding curve with one site saturation to determine the Kd of mibolerone.
# Following incubation, the ligand bound AR-LBD complex was isolated using Bio Gel HT® hydroxyapatite, washed and counted in a scintillation counter after adding scintillation cocktail.
# AR wildtype (wt) = AR wildtype (wt) (Homo sapiens, UniProt P10275); experiment: Transactivation assay with wt AR (GRE-LUC luciferase); assay type: cell-based
# AR wildtype (wt), sequence (P10275 whole entry): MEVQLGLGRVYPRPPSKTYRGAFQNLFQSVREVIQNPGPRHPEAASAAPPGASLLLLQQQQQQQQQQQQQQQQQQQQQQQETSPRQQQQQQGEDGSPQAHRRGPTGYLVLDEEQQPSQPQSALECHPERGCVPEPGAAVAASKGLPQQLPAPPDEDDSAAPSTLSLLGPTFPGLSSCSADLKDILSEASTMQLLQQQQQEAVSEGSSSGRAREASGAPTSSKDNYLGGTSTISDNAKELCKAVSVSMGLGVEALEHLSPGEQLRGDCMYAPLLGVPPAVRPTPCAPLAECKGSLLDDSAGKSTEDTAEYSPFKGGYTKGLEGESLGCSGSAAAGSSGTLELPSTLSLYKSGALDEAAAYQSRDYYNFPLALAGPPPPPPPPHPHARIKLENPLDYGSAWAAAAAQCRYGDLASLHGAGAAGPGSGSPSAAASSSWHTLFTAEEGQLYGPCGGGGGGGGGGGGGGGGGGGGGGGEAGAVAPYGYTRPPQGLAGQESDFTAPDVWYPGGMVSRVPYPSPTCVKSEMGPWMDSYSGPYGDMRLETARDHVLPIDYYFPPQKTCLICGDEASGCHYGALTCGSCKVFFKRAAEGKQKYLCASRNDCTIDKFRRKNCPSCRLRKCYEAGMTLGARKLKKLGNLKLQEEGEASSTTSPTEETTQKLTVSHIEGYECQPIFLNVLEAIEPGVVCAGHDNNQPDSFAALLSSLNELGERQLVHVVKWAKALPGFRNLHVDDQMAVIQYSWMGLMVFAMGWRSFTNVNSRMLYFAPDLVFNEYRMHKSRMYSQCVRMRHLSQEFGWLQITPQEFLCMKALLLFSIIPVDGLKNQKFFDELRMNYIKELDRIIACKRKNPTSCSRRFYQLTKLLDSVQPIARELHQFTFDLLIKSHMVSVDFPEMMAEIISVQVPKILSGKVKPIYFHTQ
# Procedure: COS7 cells were transfected with 0.25 μg GRE-LUC, 0.01 g CMV-renilla LUC, and 25 ng CMV-hAR using Lipofectamine in OptiMEM® medium. […] Firefly luciferase values were normalized to renilla luciferase values.
# Firefly luciferase values were normalized to renilla luciferase values.
# Human AR cloned into CMV vector backbone was used for the transactivation study. HEK-293 cells were plated at 120,000 cells per well of a 24 well plate in DME+5% csFBS. […] Data are represented as IC50 obtained from four parameter logistics curve.
# full length AR = experiment: LNCaP or AD1 degradation (full length AR, Western blot); assay type: cell-based
# Procedure: The numbers under each lane represents the % change from vehicle. The bands were quantified using ImageJ® software. For each lane, the AR band was divided by GAPDH band and the % difference from vehicle was calculated and represented under each lane. The numbers shown are 0 (no degradation) or represented as decreases in AR levels normalized for GAPDH levels (some values represented as positive but still indicate degradation).
# Method: LNCaP or AD1 cells expressing full length AR were plated at 750,000-1,000,000 cells/well of a 6 well plate in growth medium (RPMI+10% FBS). Twenty four hours after plating, medium was changed to RPMI+1% csFBS without phenol red and maintained in this medium for 2 days. […] Protein was extracted using salt-containing lysis buffer with three freeze-thaw cycles. Protein concentration was estimated and five microgram of total protein was loaded on a SDS-PAGE, fractionated, and transferred to a PVDF membrane. […]
# The numbers under each lane represents the % change from vehicle. The bands were quantified using ImageJ software. For each lane, the AR band was divided by GAPDH band and the % difference from vehicle was calculated and represented under each lane The numbers shown are 0 (no degradation) or represented as decreases in AR levels normalized for GAPDH levels (some values represented as positive but still indicate degradation).
# PR = target: T2, PR (Homo sapiens, UniProt P06401); conditions: positive control
# T2 sequence (P06401 1-933): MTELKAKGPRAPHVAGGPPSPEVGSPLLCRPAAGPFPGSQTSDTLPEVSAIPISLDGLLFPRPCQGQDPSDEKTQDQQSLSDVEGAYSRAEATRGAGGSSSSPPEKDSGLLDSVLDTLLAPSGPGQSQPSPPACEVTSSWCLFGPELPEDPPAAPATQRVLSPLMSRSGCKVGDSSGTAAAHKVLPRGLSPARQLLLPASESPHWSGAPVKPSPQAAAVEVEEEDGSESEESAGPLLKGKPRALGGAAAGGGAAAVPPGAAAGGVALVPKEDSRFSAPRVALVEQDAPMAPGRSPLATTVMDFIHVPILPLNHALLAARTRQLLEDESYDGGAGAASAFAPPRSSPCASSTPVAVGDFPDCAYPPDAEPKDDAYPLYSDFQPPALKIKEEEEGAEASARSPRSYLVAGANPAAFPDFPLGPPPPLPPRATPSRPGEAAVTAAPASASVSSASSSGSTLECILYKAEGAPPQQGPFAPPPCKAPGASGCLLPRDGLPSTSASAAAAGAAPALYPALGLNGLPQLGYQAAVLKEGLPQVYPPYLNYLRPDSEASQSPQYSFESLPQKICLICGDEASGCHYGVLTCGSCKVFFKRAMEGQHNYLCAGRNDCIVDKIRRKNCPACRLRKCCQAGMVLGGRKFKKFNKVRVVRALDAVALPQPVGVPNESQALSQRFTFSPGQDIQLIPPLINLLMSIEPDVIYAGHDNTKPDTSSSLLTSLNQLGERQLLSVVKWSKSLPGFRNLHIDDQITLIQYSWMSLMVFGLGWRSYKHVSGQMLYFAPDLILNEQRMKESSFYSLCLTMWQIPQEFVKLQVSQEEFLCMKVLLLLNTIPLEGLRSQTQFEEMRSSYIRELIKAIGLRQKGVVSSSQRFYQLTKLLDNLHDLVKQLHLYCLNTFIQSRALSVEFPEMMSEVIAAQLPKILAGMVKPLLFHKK
# [5] = Table 2, rats, 20 mg/kg daily for 13 days
# [6] = 20 mg/kg Hershberger experiment
smiles,measurement,setting,value
C[C@](O)(Cn1cc(F)cn1)C(=O)Nc1ccc(C#N)c(C(F)(F)F)c1.O=C(O)C(O)C(O)C(=O)O [1002 tartarate],Serum conc.,[1]; [5],12.4 nM
C[C@](O)(Cn1ccc2cc(F)ccc21)C(=O)Nc1ccc(C#N)c(C(F)(F)F)c1 [Compound 11],HLM Metabolism (H.L. min),[2],6 min
C[C@](O)(Cn1cc(F)cn1)C(=O)Nc1ccc(C#N)c(C(F)(F)F)c1 [Compound 1002],Serum conc.,[1]; [5],9.3 nM
C[C@](O)(Cn1cc(C(F)(F)F)cn1)C(=O)Nc1ccc(C#N)c(C(F)(F)F)c1 [Compound 1017],RLM Metabolism (H.L. min),[3],400 min
same,HLM Metabolism (H.L. min),[2],400 min
C[C@](O)(Cn1cc(F)cn1)C(=O)Nc1cnc(C#N)c(C(F)(F)F)c1 [Compound 1022],Serum conc.,[1]; [5],64 nM
same,Serum conc.,"[1]; Table 4, rats, 20 mg/kg",33 nM
same,RLM Metabolism (H.L. min),[3],78 min
same,HLM Metabolism (H.L. min),[2],82 min
C[C@](O)(Cn1cc(C#N)cn1)C(=O)Nc1ccc(C#N)c(C(F)(F)F)c1 [Compound 1048],RLM Metabolism (H.L. min),[3],86 min
same,HLM Metabolism (H.L. min),[2],400 min
"C[C@](O)(Cn1cc(Br)c(F)n1)C(=O)Nc1ccc(C#N)c(C(F)(F)F)c1 [Compound 1058, (S)-3-(4-Bromo-3-fluoro-1H-pyrazol-1-yl)-N-(4-cyano-3-(trifluoromethyl)phenyl)-2-hydroxy-2-methylpropanamide]",RLM Metabolism (H.L. min),[3],400 min
same,HLM Metabolism (H.L. min),[2],138 min
C[C@](O)(Cn1cc(C#N)cn1)C(=O)Nc1cnc(C#N)c(C(F)(F)F)c1 [Compound 1065],(Prostate) % diff,[4]; [6],.58%
same,(S.V.) % diff,[4]; [6],.88%
same,"Seminal vesicles weight reduction / in vivo AR antagonism, in words","[4]; 20 mg/kg, compared to 1002 or castration",full AR antagonism in vivo; also recorded: reached castration levels; also recorded: significantly improved efficacy
same,"Prostate weight reduction, improved efficacy compared to 1002",[4]; FIGS. 7C and 7D,approximately 45%
same,Serum conc.,"[1]; Table 4, rats, 20 mg/kg",561 nM
same,Conc of 1065,"[1]; 1 mg/kg, 1 mg/kg",81.58 and 87.25 and 120.1244 and 134.5505 and 129.9323
same,Conc of 1065,"[1]; 5 mg/kg, 5 mg/kg",630.4879 and 691.1901 and 485.4264 and 967.3936 and 798.7984
same,Conc of 1065,"[1]; 10 mg/kg, 10 mg/kg",637.641 and 915.1312 and 824.8076 and 681.9936 and 795.917
same,Conc of 1065,"[1]; 20 mg/kg, 20 mg/kg",1286.902 and 1298.179 and 1360.687 and 1397.834 and 1193.986
same,RLM Metabolism (H.L. min),[3],84 min
same,"HLM Metabolism, % metabolized after 60 min",[2]; after 60 min,10%
same,HLM Metabolism (H.L. min),[2],STABLE
C[C@](O)(Cn1cc(Cl)c(Br)n1)C(=O)Nc1ccc(C#N)c(C(F)(F)F)c1 [Compound 1066],RLM Metabolism (H.L. min),[3],300 min
same,HLM Metabolism (H.L. min),[2],319 min
"C[C@@H](Cn1cc(F)cn1)NC(=O)c1ccc(C#N)c(C(F)(F)F)c1 [Compound 1068, (S)-4-Cyano-N-(1-(4-fluoro-1H-pyrazol-1-yl)propan-2-yl)-3-(trifluoromethyl)benzamide]",wtAR Binding Ki (nM) (DHT = 1 nM),hAR-LBD (633-919),no binding
same,IC50,AR wildtype (wt),417 nM
same,SARD Activity Full Length % inhibition at 1 μM,"full length AR; first of two values in the cell, 1 μM",62%
same,SARD Activity Full Length % inhibition at 10 μM,"full length AR; second of two values in the cell, 10 μM",96%
"CNC(=O)c1ccc(N2C(=S)N(c3ccc(C#N)c(C(F)(F)F)c3)C(=O)C2(C)C)cc1F [Enzalutamide, reference compound]","Seminal vesicles weight reduction compared to 1002, in words",[4]; enzalutamide 30 mg/kg,marginally improved
CC(=O)[C@H]1CC[C@H]2[C@@H]3CCC4=CC(=O)CC[C@]4(C)[C@H]3CC[C@]12C [progesterone],"PR agonism, in words",PR,potent and full efficacy agonist activity
